# Test results reported in US20050155087A1, “Method of screening compounds” (priority 2001, published 2005).
# Tests used:
# [1] = test system: cds mutant zebrafish embryos; assay: rescue of polyploid zebrafish mutant cds; details: in vivo
# From the text: FIGS. 6A-6E show the ability of 8G16 to rescue a crash&burn (crb) zebrafish mutant (FIGS. 6B, untreated crb mutant and 6D 8G16 treated crb mutant) but not another polyploid zebrafish mutant cds (FIGS. 6C, untreated cds mutant and 6E, 8G16 treated cds mutant) compared to a wild-type, untreated embryo (FIG. 6A).
# [2] = test system: wild-type zebrafish embryos; details: in vivo
# [3] = test system: zebrafish embryos; assay: FACS analysis of the cell cycle of cells from treated embryos; type: in vivo; details: embryos treated with 10 and 100 μM 8G16
# From the text: Flow cylometric cell sorting analysis of zebrafish embryos to identify defects in cell cycle: To analyze the DNA content of the embryos wild-type and mutant embryonic cells were subjected to DNA flow cytometric cell sorting (FACS). We have shown that the FACS analysis of DNA content can be performed on cells from a single embryo allowing analysis and comparison of mutant and wild-type cell cycle phenotypes.
# Embryos were anesthetized with tricaine (3-amino benzoic acid ethylester also called ethyl m-aminobenzoate, in a powdered form from Sigma, Cat.# A-5040). Tricaine solution for anesthetizing fish was prepared by combining the following: 400 mg tricaine powder, 97.9 ml DD water, and about 2.1 ml 1 M Tris (pH 9), pH was adjusted to about 7. Before use 4.2 ml of Tricaine solution was mixed with 100 ml clean tank water.
# The embryos were dechorionated as described above and resuspended in a small volume of DMEM −20% FBS in a microtube. Embryos were disaggregated and resuspend in 1-2 ml of DMEM+20% FBS. The solution was passed through 105 μm mesh, and consequently 40 μm mesh. The total volume was raised to 5 ml and the cells' in the sample was counted using hemocytometer. Volume equaling 2×10^6 cells was transferred in 15 ml conical tube and filled to a total volume of 5 ml with PBS. The sample was spinned at 1200 rpm for 10 minutes and the liquid was aspirated off. […]
# [4] = test system: crash & burn (SQW 226) mutant zebrafish embryos; assay: chemical suppressor screen: whole mount P-H3 immunostaining of crash & burn embryos; type: in vivo, zebrafish (Danio rerio)
# [5] = test system: zebrafish embryos; details: cited from earlier work; for apoptosis in zebrafish embryos: in vivo
# [6] = test system: zebrafish (wild-type and SQW mutant strains); details: in vivo
# [7] = 9-20 μM, 24 hours of development
Structure (SMILES),P-H3 staining in wildtype embryos [2],"P-H3 staining in crash and burn embryos ([4]; zebrafish, in vivo)",also measured
"O=C(Nc1ncccc1O)C12CC3CC(CC(C3)C1)C2 [8G16, Adamantane-1-carboxylic acid (3-hydroxy-pyridin-2-yl)-amide]",,,"rescue of polyploid zebrafish mutant cds [1]: not; effect on normal embryos [2]: without affecting; toxicity or cell cycle affects on wild-type embryos [2]: without overt toxicity or cell cycle affects; cell cycle phase distribution [3]: accumulation of cell in the G1/S phase; phenotypic appearance of crash & burn ([4]; 10 μM 8G16, P-H3 antibody staining, genotype still crb): prevents; P-H3 staining of treated embryos [4, 7]: normal; developmental delay of treated embryos [4, 7]: slight developmental delay; crash & burn mutants detected at 24 hours of development ([4]; doses of 9, 12, 16 and 20 μM, 30-60 embryos at each dose): no crash & burn mutants were detected; crash and burn cell cycle phenotype ([4]; through 24 hours of development): prevents; rescue of crash&burn (crb) zebrafish mutant ([4]; zebrafish, in vivo): rescue"
CNc1ccc2oc(C[C@H]3O[C@@]4(CC[C@H]3C)O[C@H]([C@H](C)C(=O)c3ccc[nH]3)[C@H](C)C[C@H]4C)nc2c1C(=O)O [A23187],,,fate of metaphase arrested cells ([5]; metaphase arrested cells): driven into G1
"C=CCOc1c(Br)cc(S(=O)(=O)c2cc(Br)c(O)c(Br)c2)cc1Br [Compound 2, 4-(4-Allyloxy-3,5-dibromo-benzenesulfonyl)-2,6-dibromo-phenol]",decrease,decrease,
"Cc1cc(O)c(C(=O)C=Cc2ccc(O)cc2)c(=O)o1 [Compound 3, 4-Hydroxy-3-[3-(4-hydroxy-phenyl)-acryloyl]-6-methyl-pyran-2-one]",decrease,decrease,
"O=C(c1ccccc1)C1C(=O)C2C=CC=CC2C1=O (stereo not shown) [Compound 4, 2-Benzoyl-3a,7a-dihydro-indene-1,3-dione]",decrease,decrease,
"Cc1ccc(S(=O)(=O)Oc2ccc([N+](=O)[O-])cc2[N+](=O)[O-])cc1 [Compound 5, Toluene-4-sulfonic acid 2,4-dinitro-phenyl ester]",decrease,decrease,
"O=C(Nc1cc(S(=O)(=O)c2ccc(Cl)cc2)ccc1Cl)c1cc(I)cc(I)c1O [Compound 6, 3,5-Diiodo-N-[2-chloro-5-(4-chloro-benzenesulfonyl)-phenyl]-2-hydroxy-benzamide]",decrease,decrease,
"Nc1cc([N+](=O)[O-])ccc1NNC(=O)Nc1ccccc1 [Compound 7, 1-(2-Amino-4-nitro-phenylamino)-3-phenyl-urea]",decrease,decrease,
"N=c1ccccn1CC(=O)c1ccc(Cl)c(Cl)c1 [Compound 8, 1-(3,4-Dichloro-phenyl)-2-(2-imino-2H-pyridin-1-yl)-ethanone]",decrease,decrease,
"Cc1ccccc1OCC(=O)Nc1ccccc1C(=O)O [Compound 9, 2-(2-o-Tolyloxy-acetylamino)-benzoic acid]",decrease,decrease,
"COC(=O)CCC(=O)Nc1ccccc1Cl [Compound 10, N-(2-Chloro-phenyl)-succinamic acid methyl ester]",increase,,
"O=C(O)CCCC(=O)Nc1cc(C(F)(F)F)ccc1Cl [Compound 11, 4-(2-Chloro-5-trifluoromethyl-phenylcarbamoyl)-butyric acid]",increase,,
"O=C(O)c1cc([N+](=O)[O-])c(Nc2cccc3ccccc23)c([N+](=O)[O-])c1 [Compound 12, 4-(Naphthalen-1-ylamino)-3,5-dinitro-benzoic acid]",increase,,
"O=C(CSC1CC(=O)N(c2cccc(Cl)c2)C1=O)Nc1cccc(F)c1 (stereo not shown) [Compound 13, 2-[1-(3-Chloro-phenyl)-2,5-dioxo-pyrrolidin-3-ylsulfanyl]-N-(3-fluoro-phenyl)-acetamide]",increase,,
"CC1=CCC2(CO)COC(c3ccccc3O)C1C2 (stereo not shown) [Compound 14, 2-(5-Hydroxymethyl-8-methyl-3-oxa-bicyclo[3.3.1]non-7-en-2-yl)-phenol]",increase,,
"CC(=O)C1=C(C)NC(=O)NC1c1cccc(O)c1 (stereo not shown) [Compound 15, 5-Acetyl-4-(3-hydroxy-phenyl)-6-methyl-3,4-dihydro-1H-pyrimidin-2-one]",increase,,
"Cc1c2ccccc2c(C)c2c1ccc1ccccc12 [DMBA, 7, 12 Dimethyl benzanlhracene]",,,fish that developed tumors [6]: 10.4%; tumor types [6]: more brain and liver tumors
"C[C@@]1(CO)[C@H](O)CC[C@@]2(C)[C@H]1CC[C@H]1C[C@@H]3C[C@@]12CC[C@]3(O)CO [aphidicolin, reference compound]",,,"apoptosis in zebrafish embryos [5]: cause apoplosis; P-H3 staining in all embryos, including crash & burn ([4]; offspring of crash & burn heterozygotes raised in the presence of the chemical): decreased"
CC[C@@]1(O)C(=O)OCc2c1cc1n(c2=O)Cc2cc3ccccc3nc2-1 [camptothecin],,,apoptosis in zebrafish embryos [5]: cause apoplosis
NC(=O)NO [hydroxyurea],,,apoptosis in zebrafish embryos [5]: cause apoplosis
COC(=O)Nc1nc2ccc(C(=O)c3cccs3)cc2[nH]1 [nocodazole],,,effect of treating post-MBT embryos ([5]; post-MBT embryos): metaphase arrest and apoptosis
